Consider 2 molecules from patent publication US20240279278A1, “NMU RECEPTOR 2 AGONISTS” (Boehringer Ingelheim International GmbH, priority 2023, published 2024).

Structures are written as SMILES. ≈ marks a conversion by molar mass, not a printed value. Residues, ends and D or L forms follow the SMILES beside them.

Series [1] has as its target T1, human NMUR2 receptor (Homo sapiens, UniProt Q9GZQ4). Kind of series: IP1 Gq HTRF assay, activation of human NMUR2 in buffer. Format: cell-based. Set-up: expressed in transfected cells; host or cells: CHO-K1. Particulars: CHO-K1 cells expressing human NMUR2, stimulation buffer with 0.1% BSA; read-out: EC50 (hNMUR2) buffer. The procedure, abridged:
(§1)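 CHO-K1 cells stably expressing human NMUR1 or NMUR2, seeded 24 h before assay, stimulated with peptide agonists (8-point dose-response, 1% DMSO final) in HEPES/HBSS buffer with 50 mM LiCl and 0.1% BSA, pH 7.4, 1 h at 37 °C. IP1 accumulation read by HTRF competition (665/620 nm); EC50 from 4-parameter sigmoidal fit.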

Series [2] has as its target T1, human NMUR2 receptor. Kind of series: IP1 Gq HTRF assay, activation of human NMUR2 in human plasma. It counts as cell-based. Details: expressed in transfected cells; host or cells: CHO-K1. The note with it: CHO-K1 cells expressing human NMUR2, 100% human plasma; read-out: EC50 (hNMUR2) human plasma. The method in brief:
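CHO-K1 cells stably expressing human NMUR2 exposed to peptide agonists (8-point dose-response) in 100% human plasma with 50 mM LiCl, 1% DMSO, for 1 h at 37° C. IP1 accumulation read by HTRF competition (665/620 nm ratio). EC50 from 4-parameter sigmoidal fit.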
Background: TR-FRET usually uses a lanthanide donor and a delayed reading to cut background.

A further series deals with T2, human NMUR1 receptor (Homo sapiens, UniProt Q9HB89).
T2 construct: expressed in transfected cells; host or cells: CHO-K1
T2 sequence (Q9HB89 1-426): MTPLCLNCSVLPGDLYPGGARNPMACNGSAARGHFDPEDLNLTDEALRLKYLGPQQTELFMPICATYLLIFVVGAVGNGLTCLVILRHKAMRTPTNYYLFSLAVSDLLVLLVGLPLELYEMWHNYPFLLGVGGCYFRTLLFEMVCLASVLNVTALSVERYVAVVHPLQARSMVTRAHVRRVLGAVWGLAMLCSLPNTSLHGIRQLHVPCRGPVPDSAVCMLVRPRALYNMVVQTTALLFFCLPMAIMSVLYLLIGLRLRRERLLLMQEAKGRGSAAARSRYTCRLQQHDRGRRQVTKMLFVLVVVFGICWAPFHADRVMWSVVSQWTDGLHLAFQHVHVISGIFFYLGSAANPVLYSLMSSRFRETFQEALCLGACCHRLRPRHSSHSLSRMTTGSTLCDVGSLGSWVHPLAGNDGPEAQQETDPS
Kind of series: IP1 Gq HTRF assay, activation of human NMUR1 in buffer. Format: cell-based. Particulars: CHO-K1 cells expressing human NMUR1, stimulation buffer with 0.1% BSA; read-out: EC50 (hNMUR1) buffer. The procedure, abridged: as §1

A further series is described as follows: physchem. Format: physicochemical. The note with it: pH 7.2. As for the experimental part:
Example 6: Solubility Determination
Peptides (as TFA-salts) were weighed out in a filter unit (Mini-UniPrep Syringeless Filter 0.45 μm, Whatman PVDF), and 0.1 M phosphate buffer at pH 6 to 8 was added to achieve 10 mg/mL final peptide concentration. The peptides were dissolved by shaking the filter units horizontally at 350 rpm for 2 hours at room temperature. Samples were then filtered to remove any insoluble particles. Controls were prepared by weighing out the corresponding peptide solid material and dissolving it in an appropriate vehicle (e.g. buffer or DMSO) to a final concentration of 1 mg/mL. Both, the control and sample were analyzed by reversed phase chromatography. The area under the peak of the sample was compared to the control and the solubility was calculated based on that ratio. The pH was measured and recorded for each sample.

By EC50 is commonly meant the concentration at which the effect is half-maximal. The solubility is the concentration that dissolves in the medium under given conditions. Low readings indicate a poorly soluble substance, high ones a readily soluble substance.

T1 sequence (Q9GZQ4 whole entry): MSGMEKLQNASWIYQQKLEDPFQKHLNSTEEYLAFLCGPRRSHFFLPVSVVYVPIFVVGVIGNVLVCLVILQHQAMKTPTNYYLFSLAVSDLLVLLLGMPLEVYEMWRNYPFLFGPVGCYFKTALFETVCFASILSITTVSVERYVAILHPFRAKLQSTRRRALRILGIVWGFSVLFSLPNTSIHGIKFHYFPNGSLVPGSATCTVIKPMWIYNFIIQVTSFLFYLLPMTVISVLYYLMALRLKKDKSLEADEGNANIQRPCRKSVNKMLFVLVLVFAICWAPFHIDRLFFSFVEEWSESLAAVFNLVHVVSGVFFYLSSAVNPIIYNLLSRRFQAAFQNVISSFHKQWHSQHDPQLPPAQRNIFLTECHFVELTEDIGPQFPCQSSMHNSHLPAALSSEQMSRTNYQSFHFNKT

As to `CCCC[C@H](NC(=O)[C@H](CC(C)C)N(C)C(=O)[C@H](Cc1ccccc1)NC(=O)[C@H](Cc1ccc(O)cc1)NC(=O)CN1CCN(CCNC(=O)CN(C)C(=O)CN(C)C(=O)CN(C)C(=O)CN(C)C(=O)CN(C)C(=O)CN(C)C(=O)CN(C)C(=O)CN(C)C(=O)CN(C)C(=O)CC[C@H](NC(=O)CC[C@H](NC(=O)CC[C@H](NC(=O)CCCCCCCCCCCCCCCCC(=O)O)C(=O)O)C(=O)O)C(=O)O)CC1)C(=O)N[C@@H](CCCN)C(=O)N(C)[C@@H](C)C(=O)N[C@@H](CCCNC(=N)N)C(=O)NCC(N)=O` [Compound 70, C18DA-gGlu3-Sar9-AEPipAc-Tyr-Phe-NMeLeu-Nle-Orn-NMeAla-Arg-Gly-NH2] (HELM PEPTIDE1{[O=C(O)CCCCCCCCCCCCCCCCC(=O)[*:2]].[gGlu].[gGlu].[gGlu].[Sar].[Sar].[Sar].[Sar].[Sar].[Sar].[Sar].[Sar].[Sar].[O=C(CN1CCN(CCN[*:1])CC1)[*:2]].Y.F.[meL].[Nle].[Orn].[meA].R.G.[am]}$$$$V2.0), the EC50 at human NMUR2 receptor [1] was 2.5 nM; on human NMUR2 receptor [2], 27.2 nM; at human NMUR1 receptor, over 1000 nM. The concentration in solution in the series “physchem” (solubility at 2 h) was 8300 µg/mL (≈ 3.36 mM).

As to `CCCC[C@H](NC(=O)[C@H](CC(C)C)N(C)C(=O)[C@H](Cc1ccccc1)NC(=O)[C@H](Cc1ccc(O)cc1)NC(=O)CN1CCN(CCNC(=O)CN(C)C(=O)CN(C)C(=O)CN(C)C(=O)CN(C)C(=O)CN(C)C(=O)CN(C)C(=O)CN(C)C(=O)CN(C)C(=O)CN(C)C(=O)CC[C@H](NC(=O)CC[C@H](NC(=O)CC[C@H](NC(=O)CCCCCCCCCCCCCCCCC(=O)O)C(=O)O)C(=O)O)C(=O)O)CC1)C(=O)N[C@@H](CCCNC(=N)N)C(=O)N1CCC[C@H]1C(=O)N[C@@H](CCCNC(=N)N)C(=O)NCC(N)=O` [Compound 72, C18DA-gGlu3-Sar9-AEPipAc-Tyr-Phe-NMeLeu-Nle-Arg-Pro-Arg-Gly-NH2] (HELM PEPTIDE1{[O=C(O)CCCCCCCCCCCCCCCCC(=O)[*:2]].[gGlu].[gGlu].[gGlu].[Sar].[Sar].[Sar].[Sar].[Sar].[Sar].[Sar].[Sar].[Sar].[O=C(CN1CCN(CCN[*:1])CC1)[*:2]].Y.F.[meL].[Nle].R.P.R.G.[am]}$$$$V2.0), the EC50 was 0.9 nM at human NMUR2 receptor [1] and 10.4 nM on human NMUR2 receptor [2]. This molecule had a solubility at 2 h in “physchem” of 9600 µg/mL (≈ 3.8 mM).
